Laboratory results: US20020111274A1, “1-alkyl-3-[1-(substituted phenyl) benzotriazol-6-yl] uracils” (BASF Aktiengesellschaft, priority 2000, published 2002)

Key:
Set-up in all cases: scale not given here
ABUTH Velvetleaf [1] = assay: Postemergence herbicidal evaluation, ABUTH; type: in vivo, Abutilon theophrasti, Medic.; settings: postemergence spray, rated about two-three weeks after treatment
Summary of the method: (§1)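 Seedlings grown about two weeks were sprayed with compound in 80/20 acetone/water containing 1.0% methylated seed oil, at the equivalent of about 0.006 to 0.400 kg/ha, through a nozzle at 40 psi. Plants were kept in the greenhouse and rated visually about two to three weeks after treatment.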

AMBEL Ragweed, Common [2] = assay: Postemergence herbicidal evaluation, AMBEL; type: in vivo, Ambrosia artemisifolia, L.; settings: postemergence spray, rated about two-three weeks after treatment
Summary of the method: as §1

CASOB Sicklepod [3] = assay: Postemergence herbicidal evaluation, CASOB; type: in vivo, Cassia obtusifolia, L.; settings: postemergence spray, rated about two-three weeks after treatment
Summary of the method: as §1

[4] = system: CHEAL Lambsquarters, Common; assay: Postemergence herbicidal evaluation, CHEAL; type: in vivo, Chenopodium album, L.; settings: postemergence spray, rated about two-three weeks after treatment
Summary of the method: as §1

ECHOG Barnyardgrass [5] = assay: Postemergence herbicidal evaluation, ECHOG; type: in vivo, Echinochloa crus-galli, (L.) Beau; settings: postemergence spray, rated about two-three weeks after treatment
Summary of the method: as §1

GALAP Galium [6] = assay: Postemergence herbicidal evaluation, GALAP; type: in vivo, Galium aparine; settings: postemergence spray, rated about two-three weeks after treatment
Summary of the method: as §1

[7] = system: IPOHE Morningglory, Ivyleaf; assay: Postemergence herbicidal evaluation, IPOHE; type: in vivo, Ipomoea hederacea, (L.) Jacq.; settings: postemergence spray, rated about two-three weeks after treatment
Summary of the method: as §1

SETVI Foxtail, Green [8] = assay: Postemergence herbicidal evaluation, SETVI; type: in vivo, Setaria viridis, (L.) Beau; settings: postemergence spray, rated about two-three weeks after treatment
Summary of the method: as §1

GLXMAW Soybean, Williams [9] = assay: Postemergence herbicidal evaluation, GLXMAW; type: in vivo, Glycine max, (L.) Merr. cv Williams; settings: postemergence spray, rated about two-three weeks after treatment
Summary of the method: as §1

[10] = system: TRZAWR Wheat, Winter, cv Riband; assay: Postemergence herbicidal evaluation, TRZAWR; type: in vivo, Triticum aestivum; settings: postemergence spray, rated about two-three weeks after treatment
Summary of the method: as §1

ORYSAT Rice, Tebonnet [11] = assay: Postemergence herbicidal evaluation, ORYSAT; type: in vivo, Oryza sativa, (L.); settings: postemergence spray, rated about two-three weeks after treatment
Summary of the method: as §1

ZEAMX Corn, Field [12] = assay: Postemergence herbicidal evaluation, ZEAMX; type: in vivo, Zea mays, L. (Sammel-Bezeichnung); settings: postemergence spray, rated about two-three weeks after treatment
Summary of the method: as §1

ABUTH Velvetleaf [13] = assay: Preemergence herbicidal evaluation, ABUTH; type: in vivo, Abutilon theophrasti, Medic.; settings: preemergence
Summary of the method: (§2)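 Compound applied preemergence as an aqueous acetone spray onto freshly planted cups, dose equivalent approx. 0.013 to 0.800 kg/ha. Evaluation by rating at weeks 4–5.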

AMBEL Ragweed, Common [14] = assay: Preemergence herbicidal evaluation, AMBEL; type: in vivo, Ambrosia artemisifolia, L.; settings: preemergence
Summary of the method: as §2

CASOB Sicklepod [15] = assay: Preemergence herbicidal evaluation, CASOB; type: in vivo, Cassia obtusifolia, L.; settings: preemergence
Summary of the method: as §2

[16] = system: CHEAL Lambsquarters, Common; assay: Preemergence herbicidal evaluation, CHEAL; type: in vivo, Chenopodium album, L.; settings: preemergence
Summary of the method: as §2

ECHOG Barnyardgrass [17] = assay: Preemergence herbicidal evaluation, ECHOG; type: in vivo, Echinochloa crus-galli, (L.) Beau; settings: preemergence
Summary of the method: as §2

GALAP Galium [18] = assay: Preemergence herbicidal evaluation, GALAP; type: in vivo, Galium aparine; settings: preemergence
Summary of the method: as §2

[19] = system: IPOHE Morningglory, Ivyleaf; assay: Preemergence herbicidal evaluation, IPOHE; type: in vivo, Ipomoea hederacea, (L.) Jacq.; settings: preemergence
Summary of the method: as §2

SETVI Foxtail, Green [20] = assay: Preemergence herbicidal evaluation, SETVI; type: in vivo, Setaria viridis, (L.) Beau; settings: preemergence
Summary of the method: as §2

GLXMAW Soybean, Williams [21] = assay: Preemergence herbicidal evaluation, GLXMAW; type: in vivo, Glycine max, (L.) Merr. cv Williams; settings: preemergence
Summary of the method: as §2

[22] = system: TRZAWR Wheat, Winter, cv Riband; assay: Preemergence herbicidal evaluation, TRZAWR; type: in vivo, Triticum aestivum; settings: preemergence
Summary of the method: as §2

ORYSAT Rice, Tebonnet [23] = assay: Preemergence herbicidal evaluation, ORYSAT; type: in vivo, Oryza sativa, (L.); settings: preemergence
Summary of the method: as §2

ZEAMX Corn, Field [24] = assay: Preemergence herbicidal evaluation, ZEAMX; type: in vivo, Zea mays, L. (Sammel-Bezeichnung); settings: preemergence
Summary of the method: as §2

## COc1ccc(C)c(-n2nnc3cc(F)c(-n4c(=O)cc(C(F)(F)F)n(C)c4=O)cc32)c1 [Example 22]
ABUTH Velvetleaf [1]; 0.008 kg/ha
  Postemergence herbicidal rating ABUTH: 9.0
ABUTH Velvetleaf [1]; 0.016 kg/ha
  Postemergence herbicidal rating ABUTH: 9.0
ABUTH Velvetleaf [1]; 0.032 kg/ha
  Postemergence herbicidal rating ABUTH: 9.0
ABUTH Velvetleaf [1]; 0.062 kg/ha
  Postemergence herbicidal rating ABUTH: 9.0
AMBEL Ragweed, Common [2]; 0.008 kg/ha
  Postemergence herbicidal rating AMBEL: 0.0
AMBEL Ragweed, Common [2]; 0.016 kg/ha
  Postemergence herbicidal rating AMBEL: 0.0
AMBEL Ragweed, Common [2]; 0.032 kg/ha
  Postemergence herbicidal rating AMBEL: 2.0
AMBEL Ragweed, Common [2]; 0.062 kg/ha
  Postemergence herbicidal rating AMBEL: 3.0
CASOB Sicklepod [3]; 0.008 kg/ha
  Postemergence herbicidal rating CASOB: 0.0
CASOB Sicklepod [3]; 0.016 kg/ha
  Postemergence herbicidal rating CASOB: 0.0
CASOB Sicklepod [3]; 0.032 kg/ha
  Postemergence herbicidal rating CASOB: 0.0
CASOB Sicklepod [3]; 0.062 kg/ha
  Postemergence herbicidal rating CASOB: 0.0
[4]; 0.008 kg/ha
  Postemergence herbicidal rating CHEAL: 9.0
[4]; 0.016 kg/ha
  Postemergence herbicidal rating CHEAL: 9.0
[4]; 0.032 kg/ha
  Postemergence herbicidal rating CHEAL: 3.0
[4]; 0.062 kg/ha
  Postemergence herbicidal rating CHEAL: 4.0
ECHOG Barnyardgrass [5]; 0.008 kg/ha
  Postemergence herbicidal rating ECHCG: 0.0
ECHOG Barnyardgrass [5]; 0.016 kg/ha
  Postemergence herbicidal rating ECHCG: 0.0
ECHOG Barnyardgrass [5]; 0.032 kg/ha
  Postemergence herbicidal rating ECHCG: 0.0
ECHOG Barnyardgrass [5]; 0.062 kg/ha
  Postemergence herbicidal rating ECHCG: 0.0
GALAP Galium [6]; 0.008 kg/ha
  Postemergence herbicidal rating GALAP: 0.0
GALAP Galium [6]; 0.016 kg/ha
  Postemergence herbicidal rating GALAP: 0.0
GALAP Galium [6]; 0.032 kg/ha
  Postemergence herbicidal rating GALAP: 3.0
GALAP Galium [6]; 0.062 kg/ha
  Postemergence herbicidal rating GALAP: 5.0
[7]; 0.008 kg/ha
  Postemergence herbicidal rating IPOHE: 2.0
[7]; 0.016 kg/ha
  Postemergence herbicidal rating IPOHE: 2.0
[7]; 0.032 kg/ha
  Postemergence herbicidal rating IPOHE: 9.0
[7]; 0.062 kg/ha
  Postemergence herbicidal rating IPOHE: 2.0
SETVI Foxtail, Green [8]; 0.008 kg/ha
  Postemergence herbicidal rating SETVI: 0.0
SETVI Foxtail, Green [8]; 0.016 kg/ha
  Postemergence herbicidal rating SETVI: 0.0
SETVI Foxtail, Green [8]; 0.032 kg/ha
  Postemergence herbicidal rating SETVI: 0.0
SETVI Foxtail, Green [8]; 0.062 kg/ha
  Postemergence herbicidal rating SETVI: 0.0
GLXMAW Soybean, Williams [9]; 0.008 kg/ha
  Postemergence herbicidal rating GLXMAW: 4.0
GLXMAW Soybean, Williams [9]; 0.016 kg/ha
  Postemergence herbicidal rating GLXMAW: 4.5
GLXMAW Soybean, Williams [9]; 0.032 kg/ha
  Postemergence herbicidal rating GLXMAW: 4.0
GLXMAW Soybean, Williams [9]; 0.062 kg/ha
  Postemergence herbicidal rating GLXMAW: 5.0
[10]; 0.008 kg/ha
  Postemergence herbicidal rating TRZAWR: 3.0
[10]; 0.016 kg/ha
  Postemergence herbicidal rating TRZAWR: 3.5
[10]; 0.032 kg/ha
  Postemergence herbicidal rating TRZAWR: 4.0
[10]; 0.062 kg/ha
  Postemergence herbicidal rating TRZAWR: 4.5
ORYSAT Rice, Tebonnet [11]; 0.008 kg/ha
  Postemergence herbicidal rating ORYSAT: 2.0
ORYSAT Rice, Tebonnet [11]; 0.016 kg/ha
  Postemergence herbicidal rating ORYSAT: 2.5
ORYSAT Rice, Tebonnet [11]; 0.032 kg/ha
  Postemergence herbicidal rating ORYSAT: 3.0
ORYSAT Rice, Tebonnet [11]; 0.062 kg/ha
  Postemergence herbicidal rating ORYSAT: 3.0
ZEAMX Corn, Field [12]; 0.008 kg/ha
  Postemergence herbicidal rating ZEAMX: 4.5
ZEAMX Corn, Field [12]; 0.016 kg/ha
  Postemergence herbicidal rating ZEAMX: 4.5
ZEAMX Corn, Field [12]; 0.032 kg/ha
  Postemergence herbicidal rating ZEAMX: 4.0
ZEAMX Corn, Field [12]; 0.062 kg/ha
  Postemergence herbicidal rating ZEAMX: 4.5
ABUTH Velvetleaf [13]; rate 0.016 kg/ha
  ABUTH herbicidal rating: 0.0
ABUTH Velvetleaf [13]; rate 0.032 kg/ha
  ABUTH herbicidal rating: 9.0
ABUTH Velvetleaf [13]; rate 0.062 kg/ha
  ABUTH herbicidal rating: 9.0
ABUTH Velvetleaf [13]; rate 0.125 kg/ha
  ABUTH herbicidal rating: 7.0
AMBEL Ragweed, Common [14]; rate 0.016 kg/ha
  AMBEL herbicidal rating: 0.0
AMBEL Ragweed, Common [14]; rate 0.032 kg/ha
  AMBEL herbicidal rating: 0.0
AMBEL Ragweed, Common [14]; rate 0.062 kg/ha
  AMBEL herbicidal rating: 0.0
AMBEL Ragweed, Common [14]; rate 0.125 kg/ha
  AMBEL herbicidal rating: 0.0
CASOB Sicklepod [15]; rate 0.016 kg/ha
  CASOB herbicidal rating: 0.0
CASOB Sicklepod [15]; rate 0.032 kg/ha
  CASOB herbicidal rating: 0.0
CASOB Sicklepod [15]; rate 0.062 kg/ha
  CASOB herbicidal rating: 0.0
CASOB Sicklepod [15]; rate 0.125 kg/ha
  CASOB herbicidal rating: 0.0
[16]; rate 0.016 kg/ha
  CHEAL herbicidal rating: 9.0
[16]; rate 0.032 kg/ha
  CHEAL herbicidal rating: 9.0
[16]; rate 0.062 kg/ha
  CHEAL herbicidal rating: 9.0
[16]; rate 0.125 kg/ha
  CHEAL herbicidal rating: 9.0
ECHOG Barnyardgrass [17]; rate 0.016 kg/ha
  ECHCG herbicidal rating: 0.0
ECHOG Barnyardgrass [17]; rate 0.032 kg/ha
  ECHCG herbicidal rating: 0.0
ECHOG Barnyardgrass [17]; rate 0.062 kg/ha
  ECHCG herbicidal rating: 2.0
ECHOG Barnyardgrass [17]; rate 0.125 kg/ha
  ECHCG herbicidal rating: 7.0
GALAP Galium [18]; rate 0.016 kg/ha
  GALAP herbicidal rating: 0.0
GALAP Galium [18]; rate 0.032 kg/ha
  GALAP herbicidal rating: 0.0
GALAP Galium [18]; rate 0.062 kg/ha
  GALAP herbicidal rating: 0.0
GALAP Galium [18]; rate 0.125 kg/ha
  GALAP herbicidal rating: 0.0
[19]; rate 0.016 kg/ha
  IPOHE herbicidal rating: 0.0
[19]; rate 0.032 kg/ha
  IPOHE herbicidal rating: 0.0
[19]; rate 0.062 kg/ha
  IPOHE herbicidal rating: 0.0
[19]; rate 0.125 kg/ha
  IPOHE herbicidal rating: 0.0
SETVI Foxtail, Green [20]; rate 0.016 kg/ha
  SETVI herbicidal rating: 0.0
SETVI Foxtail, Green [20]; rate 0.032 kg/ha
  SETVI herbicidal rating: 2.0
SETVI Foxtail, Green [20]; rate 0.062 kg/ha
  SETVI herbicidal rating: 7.0
SETVI Foxtail, Green [20]; rate 0.125 kg/ha
  SETVI herbicidal rating: 9.0
GLXMAW Soybean, Williams [21]; rate 0.016 kg/ha
  GLXMAW herbicidal rating: 0.0
GLXMAW Soybean, Williams [21]; rate 0.032 kg/ha
  GLXMAW herbicidal rating: 0.0
GLXMAW Soybean, Williams [21]; rate 0.062 kg/ha
  GLXMAW herbicidal rating: 0.0
GLXMAW Soybean, Williams [21]; rate 0.125 kg/ha
  GLXMAW herbicidal rating: 0.0
[22]; rate 0.016 kg/ha
  TRZAWR herbicidal rating: 0.0
[22]; rate 0.032 kg/ha
  TRZAWR herbicidal rating: 1.0
[22]; rate 0.062 kg/ha
  TRZAWR herbicidal rating: 2.0
[22]; rate 0.125 kg/ha
  TRZAWR herbicidal rating: 4.0
ORYSAT Rice, Tebonnet [23]; rate 0.016 kg/ha
  ORYSAT herbicidal rating: 0.0
ORYSAT Rice, Tebonnet [23]; rate 0.032 kg/ha
  ORYSAT herbicidal rating: 0.0
ORYSAT Rice, Tebonnet [23]; rate 0.062 kg/ha
  ORYSAT herbicidal rating: 0.0
ORYSAT Rice, Tebonnet [23]; rate 0.125 kg/ha
  ORYSAT herbicidal rating: 0.0
ZEAMX Corn, Field [24]; rate 0.016 kg/ha
  ZEAMX herbicidal rating: 0.0
ZEAMX Corn, Field [24]; rate 0.032 kg/ha
  ZEAMX herbicidal rating: 2.0
ZEAMX Corn, Field [24]; rate 0.062 kg/ha
  ZEAMX herbicidal rating: 4.0
ZEAMX Corn, Field [24]; rate 0.125 kg/ha
  ZEAMX herbicidal rating: 6.0
